Assay [1] relates to Replicon cells. As to the kind of experiment: HCV EC50 determination, replicon luciferase assay. The following applies: Hepatitis C virus, 72 h. It counts as cell-based. Here is the method:
Replicon cells were seeded in 96-well plates at a density of 8×10^3 cells per well in 100 μL of culture medium, excluding Geneticin. Compound was serially diluted in 100% DMSO and then added to the cells at a 1:200 dilution, achieving a final concentration of 0.5% DMSO and a total volume of 200 μL. Plates were incubated at 37° C. for 3 days, after which culture medium was removed and cells were lysed in lysis buffer provided by Promega's luciferase assay system. Following the manufacturer's instruction, 100 μL of luciferase substrate was added to the lysed cells and luciferase activity was measured in a TopCount luminometer.

Assay [2] concerns the target T1, HCV Δ21 NS5b polymerase (Hepatitis C virus genotype 1b, UniProt Q9WMX2).
T1 construct: 75 nM HCV Δ21 NS5b polymerase
Description: HCV IC50 determination, NS5b polymerase assay. It is filed as biochemical. Here is the method: Assay Protocol: Either wild type or S282T (Migliaccio, et al, J. Biol. Chem. 2003, 49164-49170; Klumpp, et al., J. Biol. Chem. 2006, 3793-3799) mutant polymerase enzyme was used in this assay. NS5b polymerase assay (40 μL) was assembled by adding 28 μL polymerase mixture (final concentration: 50 mM Tris-HCl at pH 7.5, 10 mM KCL, 5 mM MgCl2, 1 mM DTT, 10 mM EDTA, 4 ng/μL of RNA template, and 75 nM HCV Δ21 NS5b polymerase) to assay plates followed by 4 μL of compound dilution. The polymerase and compound were pre-incubated at 35° C. for 10 minute before the addition of 8 μL of nucleotide substrate mixture (33P-α-labeled competing nucleotide at KM and 0.5 mM of the remaining three nucleotides). The assay plates were covered and incubated at 35° C. for 90 min. Reactions were then filtered through 96-well DEAE-81 filter plates via vacuum. The filter plates were then washed under vacuum with multiple volumes of 0.125 M NaHPO4, water, and ethanol to remove unincorporated label. Plates were then counted on TopCount to assess the level of product synthesis over background controls. The IC50 value is determined using Prism fitting program.

Where [3] appears, read: replicon cells, 3 days at 37° C., luciferase activity, read-out: EC50.

Where two headings read alike, the source gives them in different places.

By EC50 is commonly meant the concentration needed to bring the measured effect to its halfway point. As to `C[C@@]1(O)[C@H](O)[C@@H](CO)O[C@H]1c1scc2c(N)ncnc12` [Compound 1], the EC50 in assay [1] (setting [3]) was 90 µM. Still for that read-out and setting: next, `CC(C)(C)C(=O)SCCOP(=O)(OCCSC(=O)C(C)(C)C)OC[C@H]1O[C@@H](c2scc3c(N)ncnc23)[C@](C)(O)[C@@H]1O` [Compound 2]: 6.1 µM. For orientation: IC50 means the midpoint of a concentration-inhibition curve. On to `C[C@@]1(O)[C@H](O)[C@@H](COP(=O)(O)OP(=O)(O)OP(=O)(O)O)O[C@H]1c1scc2c(N)ncnc12` [Compound 4], for which the IC50 in assay [2] amounted to 0.37 µM. For the compound `CC(C)(C)C(=O)SCCOP(=O)(OCCSC(=O)C(C)(C)C)OC[C@H]1O[C@@H](c2scc3c(=O)[nH]c(N)nc23)[C@](C)(O)[C@@H]1O` [Compound 62], the EC50 in assay [1] (setting [3]) came to 24 µM. The compound `C[C@@]1(O)[C@H](O)[C@@H](COP(=O)(O)OP(=O)(O)OP(=O)(O)O)O[C@H]1c1scc2c(=O)[nH]c(N)nc12` [Compound 63] had an IC50 in assay [2] of 0.27 µM. In the case of `CCOC(=O)[C@H](C)NP(=O)(OC[C@H]1O[C@@H](c2scc3c(N)ncnc23)[C@](C)(O)[C@@H]1O)Oc1ccccc1` (stereo partly drawn) [Compound 64], the midpoint of the response in assay [1], the EC50, lay at 2.9 µM.

The values are drawn from US8012942B2, “Carba-nucleoside analogs for antiviral treatment” (Gilead Sciences, Inc., priority 2009, dated 2011).
